From patent US12257214B2, “Compositions and methods comprising deoxy-pentitols” (The Charlotte Mecklenburg Hospital Authority, priority 2021, dated 2025)
pIC50: −log10 of the molar value.

Assays:
A-498 = test: ATPlite cell IC50 screening, A-498; format: cell-based; conditions: Homo sapiens, A498; A-498, Renal cell carcinoma; ATPlite luminescence
Experimental: (§1) In brief, the cells were cultures in relevant medium and treated with a range of 9 doses of 2-deoxyribitol, from 10 mM, 5 mM, 2.5 mM, 1.25 mM, 0.62 mM, 0.31 mM, 0.08 mM, and 0.04 mM. Cells were diluted in the corresponding ATCC recommended medium and dispensed in a 384-well plate, depending on the cell line used, at a density of 100-6400 cells per well in 45 μl medium. For each used cell line the optimal cell density was used. The margins of the plate were filled with phosphate-buffered saline. Plated cells were incubated in a humidified atmosphere of 5% CO2 at 37° C. After 24 hours, 5 μl of compound dilution was added and plates were further incubated. At the end of experiment (t=end), 24 μl of ATPlite 1Step™ (PerkinElmer) solution was added to each well, and subsequently shaken for 2 minutes. After 10 minutes of incubation in the dark, the luminescence was recorded on an Envision multimode reader (PerkinElmer). IC50 was determined in comparison with the control samples. The cell lines tested and their corresponding disease model is indicated the left-most and middle columns, respectively. IC50 values are given in μM values in the right-most column. This screening was performed of a list of cancer cells to establish IC50 values for each of the cancer cell lines. This screening provides evidence for the potential of 2DR to treat many cancer types.

5637 = test: ATPlite cell IC50 screening, 5637; format: cell-based; conditions: 5637, Bladder carcinoma; ATPlite luminescence
Experimental: as §1

J82 = test: ATPlite cell IC50 screening, J82; format: cell-based; conditions: Homo sapiens; J82, Bladder carcinoma; ATPlite luminescence
Experimental: as §1

VA-ES-BJ = test: ATPlite cell IC50 screening, VA-ES-BJ; format: cell-based; conditions: Epithelioid sarcoma, ATPlite luminescence
Experimental: as §1

786-O = test: ATPlite cell IC50 screening, 786-O; format: cell-based; conditions: Homo sapiens, 786-0, Renal cell carcinoma, ATPlite luminescence
Experimental: as §1

G-361 = test: ATPlite cell IC50 screening, G-361; format: cell-based; conditions: Homo sapiens; G-361, Melanoma; ATPlite luminescence
Experimental: as §1

CCF-STTG1 = test: ATPlite cell IC50 screening, CCF-STTG1; format: cell-based; conditions: Homo sapiens; CCF-STTG1, Astrocytoma; ATPlite luminescence
Experimental: as §1

HL-60 = test: ATPlite cell IC50 screening, HL-60; format: cell-based; conditions: Homo sapiens; HL-60, Adult acute myeloid leukemia; ATPlite luminescence
Experimental: as §1

SW982 = test: ATPlite cell IC50 screening, SW982; format: cell-based; conditions: Homo sapiens; SW982, Biphasic synovial sarcoma; ATPlite luminescence
Experimental: as §1

[1] = test system: prostate cancer cell line LNCaP; test: LNCaP cell culture, growth and death (FIG. 5, FIG. 10); format: cell-based
Experimental: A dose dependent decrease in cell density was clearly detected with 2-deoxyribitol treatment, but not with ribitol treatment.
Less than 50% of cells and 10% of cells were detected with the treatment of 10 mM and 50 mM 2-deoxyribitol, respectively.

SW620 = test: ATPlite cell IC50 screening, SW620; format: cell-based; conditions: Homo sapiens, SW-620; SW620, Colon adenocarcinoma; ATPlite luminescence
Experimental: as §1

MCF7 cells = test: Anchorage independent growth, tumor colonies in agar gel (FIG. 3); format: cell-based; conditions: 20 days
From the text: Stars indicate a significant difference as compared to the control (p<0.01, n=3).
However, this effect was not related to the enhanced expression of glycosylation of α-DG.

HT = test: ATPlite cell IC50 screening, HT; format: cell-based; conditions: Homo sapiens, Diffuse large B-cell lymphoma, ATPlite luminescence
Experimental: as §1

DU4475 = test: ATPlite cell IC50 screening, DU4475; format: cell-based; conditions: Homo sapiens, DU-4475; DU4475, Breast carcinoma; ATPlite luminescence
Experimental: as §1

PA-1 = test: ATPlite cell IC50 screening, PA-1; format: cell-based; conditions: Homo sapiens; PA-1, Ovarian mixed germ cell tumor; ATPlite luminescence
Experimental: as §1

PC-3 = test: ATPlite cell IC50 screening, PC-3; format: cell-based; conditions: Homo sapiens; PC-3, Prostate carcinoma; ATPlite luminescence
Experimental: as §1

HCT-15 = test: ATPlite cell IC50 screening, HCT-15; format: cell-based; conditions: Homo sapiens; HCT-15, Colon adenocarcinoma; ATPlite luminescence
Experimental: as §1

Water solubility = format: physicochemical
From the text: It can be delivered by direct application to local areas, given orally or through vasculature system. 2-deoxyribitol can also be delivered before, at the same time, or after the use of other drugs. 2-deoxyribitol can be applied as treatment for cancers before, at the same time, or after any other treatment procedure(s). In addition, the effect of 2-deoxyribitol on three tissue types of cancers indicate that it can be applied for many other epithelial cancers.

A-204 = test: ATPlite cell IC50 screening, A-204; format: cell-based; conditions: Homo sapiens, A204; A-204, Embryonal rhabdomyosarcoma; ATPlite luminescence
Experimental: as §1

LS 174T = test: ATPlite cell IC50 screening, LS 174T; format: cell-based; conditions: Homo sapiens, LS174T, Colon adenocarcinoma, ATPlite luminescence
Experimental: as §1

HuTu 80 = test: ATPlite cell IC50 screening, HuTu 80; format: cell-based; conditions: Homo sapiens, HuTu80; HuTu 80, Duodenal adenocarcinoma; ATPlite luminescence
Experimental: as §1

RKO = test: ATPlite cell IC50 screening, RKO; format: cell-based; conditions: Homo sapiens, Colon carcinoma, ATPlite luminescence
Experimental: as §1

SR = test: ATPlite cell IC50 screening, SR; format: cell-based; conditions: Homo sapiens, Anaplastic large cell lymphoma, ATPlite luminescence
Experimental: as §1

T24 = test: ATPlite cell IC50 screening, T24; format: cell-based; conditions: Homo sapiens, T-24; T24, Bladder carcinoma; ATPlite luminescence
Experimental: as §1

SUP-T1 = test: ATPlite cell IC50 screening, SUP-T1; format: cell-based; conditions: Homo sapiens; SUP-T1, Childhood T lymphoblastic lymphoma; ATPlite luminescence
Experimental: as §1

SW948 = test: ATPlite cell IC50 screening, SW948; format: cell-based; conditions: Homo sapiens; SW948, Colon adenocarcinoma; ATPlite luminescence
Experimental: as §1

SMILES: OCC[C@H](O)[C@H](O)CO [2-deoxyribitol]
- pIC50 (A-498): 2.06
- pIC50 5637: 2.03
- pIC50 (J82): 2.44
- pIC50 (VA-ES-BJ): 2.28
- pIC50 (786-O): 2.07
- pIC50 (G-361): < 2.00
- pIC50 (CCF-STTG1): 2.23
- pIC50 (HL-60): 2.13
- pIC50 (SW982): 2.56
- cells detected after treatment ([1]; 10 mM, 4 days): Less than 50%
- number of cancer cells / anticancer effect ([1]; 10 mM, 7 days (FIG. 10)): markedly reduces the number of cancer cells
- cells detected after treatment ([1]; 50 mM, 4 days): < 10%
- effect on cell growth, death and cell density ([1]; 2-50 mM, 4 days): dose dependent inhibition in cell growth and death
- pIC50 (SW620): 2.28
- cell colonies in agar culture (MCF7 cells; 10 mM): absence of cell colony
- anchorage independent growth (formation of tumor colonies within agar gel) (MCF7 cells; 10 mM and 20 mM): significantly inhibited
- pIC50 (HT): 2.16
- pIC50 (DU4475): 2.24
- pIC50 (PA-1): 2.46
- pIC50 (PC-3): 2.43
- pIC50 (HCT-15): 2.11
- water solubility (Water solubility): water soluble
- pIC50 (A-204): 2.22
- pIC50 (LS 174T): 2.60
- pIC50 (HuTu 80): 2.31
- pIC50 (RKO): 2.24
- pIC50 (SR): 2.37
- pIC50 (T24): < 2.00
- pIC50 (SUP-T1): 2.51
- pIC50 (SW948): 2.60
